15 compounds from patent US20250215030A1, “STAT MODULATORS AND USES THEREOF” (Recludix Pharma, Inc., priority 2022, published 2025) can be followed below.

pIC50: −log10 of the molar value. A value given as a limit tells only on which side of the number the result lay.

In assay [1] the target is T1, Recombinant STAT3 protein (STAT3(G127-I722)) (Homo sapiens, UniProt P40763).
T1 construct: STAT3(G127-I722)
Kind of assay: STAT3 Fluorescence Polarization (FP) Assay. The assay is classed as binding. The settings on record: STAT3(G127-I722) 25 nM, probe 5-FAM-GpYLPQTV-NH2 2 nM, 45-minute incubation. The gist of the method:
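Serially diluted compounds (1% DMSO) were mixed with 2 nM fluorescent phosphotyrosine peptide and 25 nM STAT3 construct G127-I722, pH 7.4, incubated 45 min at room temperature. IC50 values from fitted polarization curves are reported as categories A (≤100 nM), B, C, D (>10 μM).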

The target in assay [2] is T2, Recombinant STAT6 protein (STAT6(W123-T658)) (Homo sapiens, UniProt P42226).
T2 construct: STAT6(W123-T658)
T2 sequence (P42226 123-658): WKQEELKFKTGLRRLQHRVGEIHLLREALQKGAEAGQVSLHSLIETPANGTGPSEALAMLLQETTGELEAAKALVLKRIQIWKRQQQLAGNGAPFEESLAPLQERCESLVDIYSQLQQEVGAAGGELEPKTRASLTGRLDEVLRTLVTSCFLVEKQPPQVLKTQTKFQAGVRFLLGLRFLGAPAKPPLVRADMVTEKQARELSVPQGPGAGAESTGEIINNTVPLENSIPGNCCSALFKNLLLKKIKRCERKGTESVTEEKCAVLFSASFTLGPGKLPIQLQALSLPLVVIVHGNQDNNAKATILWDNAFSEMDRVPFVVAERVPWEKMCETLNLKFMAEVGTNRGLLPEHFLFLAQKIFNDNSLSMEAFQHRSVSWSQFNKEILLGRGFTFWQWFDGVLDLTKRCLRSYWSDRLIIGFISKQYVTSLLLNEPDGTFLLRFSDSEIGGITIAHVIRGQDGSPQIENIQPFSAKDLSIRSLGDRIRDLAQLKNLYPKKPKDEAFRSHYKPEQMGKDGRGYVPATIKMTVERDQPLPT
The experiment in a line: STAT6 Fluorescence Polarization (FP) Assay. The settings on record: STAT6(W123-T658) 250 nM, probe 5-FAM-ApYKPFQDLI-NH2 2 nM, 45-minute incubation. The assay is classed as binding. The method in brief:
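Competitive displacement of a fluorescent phosphotyrosine peptide (2 nM) from recombinant STAT6 W123-T658 (250 nM), 45 min at room temperature in 10 mM HEPES pH 7.4, 50 mM NaCl, 2 mM DTT. mP fitted against log compound for IC50, grouped A (≤300 nM) to D (>30 μM).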

T1 sequence (P40763 127-722, species assumed): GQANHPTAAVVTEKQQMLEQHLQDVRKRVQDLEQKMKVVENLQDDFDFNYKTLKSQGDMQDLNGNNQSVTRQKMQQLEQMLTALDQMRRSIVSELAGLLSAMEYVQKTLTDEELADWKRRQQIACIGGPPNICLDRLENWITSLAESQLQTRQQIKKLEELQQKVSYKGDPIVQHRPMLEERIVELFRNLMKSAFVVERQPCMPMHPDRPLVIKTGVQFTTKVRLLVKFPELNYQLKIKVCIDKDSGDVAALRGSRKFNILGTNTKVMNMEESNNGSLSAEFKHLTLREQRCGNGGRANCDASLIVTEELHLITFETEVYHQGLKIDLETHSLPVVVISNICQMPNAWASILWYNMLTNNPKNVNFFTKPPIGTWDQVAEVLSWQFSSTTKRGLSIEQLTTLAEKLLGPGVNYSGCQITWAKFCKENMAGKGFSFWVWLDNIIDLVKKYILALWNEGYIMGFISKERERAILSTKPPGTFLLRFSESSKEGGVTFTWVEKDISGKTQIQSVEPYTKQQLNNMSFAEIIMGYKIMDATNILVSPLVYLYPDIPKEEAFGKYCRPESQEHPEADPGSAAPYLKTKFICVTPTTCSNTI

On to `O=C(N[C@H]1C[C@@H]2C[C@@H]2C[C@H]2CC[C@@H](C(=O)N3CCN(c4ccccn4)CC3)N2C1=O)c1cc2cc(C(F)(F)P(=O)(O)O)ccc2s1` [Compound 113, (difluoro(2-(((3S,6S,7aS,8aR,9aR)-5-ox0-3-(4-(pyridin-2-yl)piperazine-1-carbonyl)decahydro-1H-cyclopropa[d]pyrrolo[1,2-a]azocin-6-yl)carbamoyl)benzo[b]thiophen-5-yl)methyl)phosphonic acid], for which the pIC50 in assay [1] is 6.00 to 7.00; in assay [2] it was 4.52 to 5.52.
Regarding `CO[C@@H]1CCN(C(=O)C2CN(C(=O)[C@@H]3CC[C@@H]4C[C@H]5C[C@H]5C[C@H](NC(=O)c5cc6cc(C(F)(F)P(=O)(O)O)ccc6s5)C(=O)N43)C2)C1` [Compound 114, (difluoro(2-(((3S,6S,7aS,8aR,9aR)-3-(3-((R)-3-methoxypyrrolidine-1-carbonyl)azetidine-1-carbonyl)-5-oxodecahydro-1H-cyclopropa[d]pyrrolo[1,2-a]azocin-6-yl)carbamoyl)benzo[b]thiophen-5-yl)methyl)phosphonic acid], the pIC50 was over 7.00 in assay [1] and 4.52 to 5.52 in assay [2].
The like results for `O=C(N[C@H]1C[C@@H]2C[C@@H]2C[C@H]2CC[C@@H](C(=O)N3CCN(C4CCOCC4)CC3)N2C1=O)c1cc2cc(C(F)(F)P(=O)(O)O)ccc2s1` [Compound 115, (difluoro(2-(((3S,6S,7aS,8aR,9aR)-5-ox0-3-(4-(tetrahydro-2H-pyran-4-yl)piperazine-1-carbonyl)decahydro-1H-cyclopropa[d]pyrrolo[1,2-a]azocin-6-yl)carbamoyl)benzo[b]thiophen-5-yl)methyl)phosphonic acid] were, in that order, 6.00 to 7.00 and 5.52 to 6.52.
Consider `CC(=O)N1CC[C@@H](NC(=O)[C@@H]2CC[C@@H]3C[C@H]4C[C@H]4C[C@H](NC(=O)c4cc5cc(C(F)(F)P(=O)(O)O)ccc5s4)C(=O)N32)C1` [Compound 116, ((2-(((3S,6S,7aS,9aR)-3-(((R)-1-acetylpyrrolidin-3-yl)carbamoyl)-5-oxodecahydro-1H-cyclopropa[d]pyrrolo[1,2-a]azocin-6-yl)carbamoyl)benzo[b]thiophen-5-yl)difluoromethyl)phosphonic acid], for which the pIC50 was over 7.00 in assay [1] and 5.52 to 6.52 in assay [2].
As to `CC(=O)N1CC[C@H](NC(=O)[C@@H]2CC[C@@H]3C[C@H]4C[C@H]4C[C@H](NC(=O)c4cc5cc(C(F)(F)P(=O)(O)O)ccc5s4)C(=O)N32)C1` [Compound 117, ((2-(((3S,6S,7aS,8aR,9aR)-3-(((S)-1-acetylpyrrolidin-3-yl)carbamoyl)-5-oxodecahydro-1H-cyclopropa[d]pyrrolo[1,2-a]azocin-6-yl)carbamoyl)benzo[b]thiophen-5-yl)difluoromethyl)phosphonic acid], the pIC50 in assay [1] was over 7.00; in assay [2], 5.52 to 6.52.
On to `NC(=O)N1CC[C@@H](NC(=O)[C@@H]2CC[C@@H]3C[C@H]4C[C@H]4C[C@H](NC(=O)c4cc5cc(C(F)(F)P(=O)(O)O)ccc5s4)C(=O)N32)C1` [Compound 118, ((2-(((3S,6S,7aS,8aR,9aR)-3-(((R)-1-carbamoylpyrrolidin-3-yl)carbamoyl)-5-oxodecahydro-1H-cyclopropa[d]pyrrolo[1,2-a]azocin-6-yl)carbamoyl)benzo[b]thiophen-5-yl)difluoromethyl)phosphonic acid], for which the pIC50 was over 7.00 in assay [1] and 5.52 to 6.52 in assay [2].
The like results for `O=C(N[C@H]1C[C@@H]2C[C@@H]2C[C@H]2CC[C@@H](C(=O)N[C@@H]3CCN(C4CCOCC4)C3)N2C1=O)c1cc2cc(C(F)(F)P(=O)(O)O)ccc2s1` [Compound 119, (difluoro(2-(((3S,6S,7aS,8aR,9aR)-5-oxo-3-(((R)-1-(tetrahydro-2H-pyran-4-yl)pyrrolidin-3-yl)carbamoyl)decahydro-1H-cyclopropa[d]pyrrolo[1,2-a]azocin-6-yl)carbamoyl)benzo[b]thiophen-5-yl)methyl)phosphonic acid] were, in that order, 6.00 to 7.00 and 4.52 to 5.52.
The like results for `O=C(N[C@H]1C[C@@H]2C[C@@H]2C[C@H]2CC[C@@H](C(=O)N[C@@H]3CCN(c4cn[nH]c4)C3)N2C1=O)c1cc2cc(C(F)(F)P(=O)(O)O)ccc2s1` [Compound 120, ((2-(((3S,6S,7aS,8aR,9aR)-3-(((R)-1-(1H-pyrazol-4-yl)pyrrolidin-3-yl)carbamoyl)-5-oxodecahydro-1H-cyclopropa[d]pyrrolo[1,2-a]azocin-6-yl)carbamoyl)benzo[b]thiophen-5-yl)difluoromethyl)phosphonic acid] were, in that order, 6.00 to 7.00 and 5.52 to 6.52.
The like results for `O=C(N[C@H]1C[C@H]2C[C@H]2C[C@H]2CC[C@@H](C(=O)N3CC(c4ccccc4)C3)N2C1=O)c1cc2cc(C(F)(F)P(=O)(O)O)ccc2s1` [Compound 121] were, in that order, over 7.00 and 5.52 to 6.52.
In the case of `CC(C)(CNC(=O)[C@@H]1CC[C@@H]2C[C@@H]3C[C@@H]3C[C@H](NC(=O)c3cc4cc(C(F)(F)P(=O)(O)O)ccc4s3)C(=O)N21)c1cccnc1` [Compound 122, (difluoro(2-(((3S,6S,7aR,8aS,9aR)-3-((2-methyl-2-(pyridin-3-yl)propyl)carbamoyl)-5-oxodecahydro-1H-cyclopropa[d]pyrrolo[1,2-a]azocin-6-yl)carbamoyl)benzo[b]thiophen-5-yl)methyl)phosphonic acid], the pIC50 in assay [1] is 6.00 to 7.00; in assay [2] it was 4.52 to 5.52.
Take `O=C(N[C@H]1C[C@H]2C[C@H]2C[C@H]2CC[C@@H](C(=O)NCC(CO)c3cccnc3)N2C1=O)c1cc2cc(C(F)(F)P(=O)(O)O)ccc2s1` (stereo partly drawn) [Compound 123, (difluoro(2-(((3S,6S,7aR,8aS,9aR)-3-((3-hydroxy-2-(pyridin-3-yl)propyl)carbamoyl)-5-oxodecahydro-1H-cyclopropa[d]pyrrolo[1,2-a]azocin-6-yl)carbamoyl)benzo[b]thiophen-5-yl)methyl)phosphonic acid]: the pIC50 is 6.00 to 7.00 in assay [1] and 4.52 to 5.52 in assay [2].
For `O=C(N[C@H]1C[C@H]2C[C@H]2C[C@H]2CC[C@@H](C(=O)NCc3c[nH]c4ncccc34)N2C1=O)c1cc2cc(C(F)(F)P(=O)(O)O)ccc2s1` [Compound 124, ((2-(((3S,6S,7aR,8aS,9aR)-3-(((1H-pyrrolo[2,3-b]pyridin-3-yl)methyl)carbamoyl)-5-oxodecahydro-1H-cyclopropa[d]pyrrolo[1,2-a]azocin-6-yl)carbamoyl)benzo[b]thiophen-5-yl)difluoromethyl)phosphonic acid], the values for the pIC50 in assay [1] and in assay [2] were over 7.00 and 5.52 to 6.52, respectively.
In the case of `O=C(N[C@H]1C[C@H]2C[C@H]2C[C@H]2CC[C@@H](C(=O)N3CCN(C4CCOCC4)CC3)N2C1=O)c1cc2cc(C(F)(F)P(=O)(O)O)ccc2s1` [Compound 125, (difluoro(2-(((3S,6S,7aR,8aS,9aR)-5-ox0-3-(4-(tetrahydro-2H-pyran-4-yl)piperazine-1-carbonyl)decahydro-1H-cyclopropa[d]pyrrolo[1,2-a]azocin-6-yl)carbamoyl)benzo[b]thiophen-5-yl)methyl)phosphonic acid], the pIC50 is 6.00 to 7.00 in assay [1] and 4.52 to 5.52 in assay [2].
The like results for `CC(=O)N1C[C@H](NC(=O)[C@@H]2CC[C@@H]3C[C@@H]4C[C@@H]4C[C@H](NC(=O)c4cc5cc(C(F)(F)P(=O)(O)O)ccc5s4)C(=O)N32)[C@@H](F)C1` [Compound 126, ((2-(((3S,6S,7aR,8aS,9aR)-3-(((3S,4S)-1-acetyl-4-fluoropyrrolidin-3-yl)carbamoyl)-5-oxodecahydro-1H-cyclopropa[d]pyrrolo[1,2-a]azocin-6-yl)carbamoyl)benzo[b]thiophen-5-yl)difluoromethyl)phosphonic acid] were, in that order, over 7.00 and 5.52 to 6.52.
As for `CC(=O)N1C[C@@H](F)[C@@H](NC(=O)[C@@H]2CC[C@@H]3C[C@@H]4C[C@@H]4C[C@H](NC(=O)c4cc5cc(C(F)(F)P(=O)(O)O)ccc5s4)C(=O)N32)C1` [Compound 127, ((2-(((3S,6S,7aR,8aS,9aR)-3-(((3S,4R)-1-acetyl-4-fluoropyrrolidin-3-yl)carbamoyl)-5-oxodecahydro-1H-cyclopropa[d]pyrrolo[1,2-a]azocin-6-yl)carbamoyl)benzo[b]thiophen-5-yl)difluoromethyl)phosphonic acid], the pIC50 in assay [1] is over 7.00; in assay [2], 4.52 to 5.52.
